Assay results taken from patent US20180116990A1, “COMPOSITION OF BIOACTIVE LIPIDS AND METHODS OF USE THEREOF” (UND Life Sciences, LLC, priority 2016, published 2018).
Where two headings read alike, the source gives them in different places.

B1: BDNF: brain-derived neurotropic factor (BDNF), a neurotrophin (protein, UniProt P23560 19-247, looked up)
Neurotrophic factor BDNF …: APMKEANIRGQGGLAYPGVRTHGTLESVNGPKAGSRGLTSLADTFEHVIEELLDEDQKVRPNEENNKDADLYTSRVMLSSQVPLEPPLLFLLEEYKNYLDAANMSMRVRRHSDPARRGELSVCDSISEWVTAADKKTAVDMSGGTVTVLEKVPVSKGQLKQYFYETKCNPMGYTKEGCRGIDKRHWNSQCRTTQSYVRALTMDSKKRIGWRFIRIDTSCVCTLTIKRGR

What was measured:
[1] = system: human macrophage cells; assay: production of IL-6 and TNF-α by human macrophage cells stimulated with LPS in vitro (FIG. 12); assay type: cell-based; details: LPS stimulated increase taken as 100%
Experimental: C=Control; LPS stimulated increase in IL-6 and TNF-α production taken as 100%; RSv=Resolvin E1; PRt=Protectin D1; MaR=Maresin; L+R+P+M=LXA4=resolvin D1+Protectin D1+Maresin in 1:1:1:1 ratio.
(§1) In another study, this was similar to the study given in Examples 5 and 6, except that in this instance different bioactive lipids singly and in combination were tested in combination with or without anti-VEGF antibody. Thus, in this study, experimental animals received LXA4, resolvin E1, resolvin D1, protectin D1, maresin 1 or a combination of LXA4+resolvin E1+protectin D1+maresin 1 (in the ratio of 1:1:1:1)±anti-VEGF antibody were given with appropriate control groups. In this study, dose of bioactive lipids used was 5 ng, 10 ng, 15 ng, 20 ng, 50 ng, 100 ng, 200 ng, 500 ng, 1 μg, 5 μg, or 25.0 μg once in 4 weeks for 3 months. […] A summary of the results obtained with bioactive lipids on angiogenesis (FIG. 10) in vitro; on STZ-induced cytotoxicity to vascular endothelial cells (FIG. 11); on LPS-induced IL-6 and TNF-α secretion by human macrophages in vitro (FIG. 12); on PGE2 and VEGF secretion by LPS stimulated ARPE cells in vitro (FIG. 13); leukocyte migration and adherence to endothelial cells in vitro (FIG. 14); and BDNF secretion by ARPE cells stimulated by LPS (FIG. 15) are given in respective figures.

[2] = system: experimental animals with DR, AMD, DME, retinopathy of prematurity; assay: intravitreal injection in experimental animals with DR, AMD, DME, retinopathy of prematurity (Examples 5-7, FIG. 16); assay type: in vivo; details: for regression of DR, AMD, DME, retinopathy of prematurity: all doses
Source text: The degree of DR in control is taken as 100% which received only the vehicle. All bioactive lipids are able to suppress/reverse/arrest DR to a significant degree. […] Similar results were obtained with AMD, DME and retinopathy of prematurity. AVA=Anti-VEGF antibody; LRPM=Lipoxin A4+resolvin+protectin+maresin; AVA+LRPM=Anti-VEGF antibody+Lipoxin A4+resolvin+protectin+maresin.
[…] with DR, AMD, DME, retinopathy of prematurity (each group consisting of 10 animals: total 40 animals) were treated by direct intravitreal injection of LXA4 free acid form of composition according the examples 1-4 in doses ranging from 10.0 μg/day once in a week for 4 weeks.
In another study, this was similar to the study given in Example 5, except that in this instance different bioactive lipids singly and in combination were tested. Thus, in this study, experimental animals received LXA4, resolvin E1, resolvin D1, protectin D1, maresin 1 or a combination of LXA4+resolvin E1+protectin D1+maresin 1 (in the ratio of 1:1:1:1) were given with appropriate control groups. In this study, different doses of bioactive lipids were used either 5 ng, 10 ng, 15 ng, 20 ng, 50 ng, 100 ng, 200 ng, 500 ng, 1 μg, 5 μg or ranging from 10.0 μg to 100.0 μg per week for 4 weeks; once in 4 weeks for 3 months.
as §1

[3] = system: ARPE 19 cells; details: LPS induced ARPE 19 cells, cited from earlier work
[4] = effect of ethanol and albumin on stability of LXA4 in solution in vitro (Example 8, FIGS. 17-18); assay type: physicochemical
Experimental: C=Control (100%); Concentration of LXA4 used in the test system is 10 μg to which different concentrations of albumin is added and after a specific period of incubation the concentration of LXA4 present in the solution is tested. It is seen that when the % of albumin exceeded 0.01%, the stability of LXA4 is decreased. […] The test system used: LXA4 is dissolved in 0.01% ethanol (pH 7.4) at 37° C. to which different concentrations of albumin is added and at the end of incubation time the concentration of LXA4 present is tested to know whether albumin would influence the stability of LXA4 in the solution.
Concentration of LXA4 tested 100 ng. […] C=Control (100%) (expected). Various doses of albumin were added to LXA4 solution in saline/PBS/ethanol and the stability of LXA4 was tested at the end of different periods of incubation in days. Results were best when ethanol concentration in the solution is between 0.01 to 0.0001% and albumin concentration is between 0.01 to 0.0001%.
The effect of albumin as an exemplary stabilizing agent in compositions of bioactive lipids was tested as follows: To 250 ng of LXA4 dissolved in a solution of saline/PBS with or without 0.01% ethanol was added different concentrations of albumin and after a specific period of incubation the concentration of LXA4 present in the solution was tested.

[5] = system: adult human retinal pigment epithelial cells, ARPE 19 cells; assay: production of PGE2 and VEGF by ARPE 19 cells exposed to LPS (FIG. 13); assay type: cell-based; details: LPS positive control taken as 100%
Experimental: C=Control; LPS=Positive control taken as 100%; RSv=Resolvin E1; PRt=Protectin D1; MaR=Maresin; L+R+P+M=LXA4=resolvin D1+Protectin D1+Maresin in 1:1:1:1 ratio.
as §1

[6] = system: VEGF-induced angiogenesis; assay: effect of bioactive lipids on angiogenesis induced by VEGF in vitro (FIG. 10); assay type: cell-based; details: positive test control taken as 100%
Experimental: C=Control; T=positive test control taken as 100%; RSv=Resolvin E1; PRt=Protectin D1; MaR=Maresin; L+R+P+M=LXA4=resolvin D1+Protectin D1+Maresin in 1:1:1:1 ratio.
as §1

[7] = system: vascular endothelial cells; assay: STZ-induced cytotoxic action on vascular endothelial cells in vitro (FIG. 11); assay type: cell-based; details: STZ cytotoxicity taken as 100%
Experimental: C=Control; STZ=Streptozotocin-induced cytotoxicity taken as positive control taken as 100%; RSv=Resolvin E1; PRt=Protectin D1; MaR=Maresin; L+R+P+M=LXA4=resolvin D1+Protectin D1+Maresin in 1:1:1:1 ratio.
as §1

[8] = system: leukocyte migration and adherence; assay: leukocyte migration and adherence stimulated by LPS in vitro (FIG. 14); assay type: cell-based; details: LPS positive control taken as 100%
Experimental: C=Control; LPS=positive control taken as 100%; RSv=Resolvin E1; PRt=Protectin D1; MaR=Maresin; L+R+P+M=LXA4=resolvin D1+Protectin D1+Maresin in 1:1:1:1 ratio.
as §1

[9] = production of other bioactive lipids (observation)
Source text: Thus, one bioactive lipid enhances the production and action of other bioactive lipids. In a surprise observation, inventor noted that LXA4 and other bioactive lipids function as autocrine factors enhancing their own production.

[10] = system: experimental animals with DR, AMD, DME, retinopathy of prematurity; assay: intravitreal injection in experimental animals with DR, AMD, DME, retinopathy of prematurity (Examples 5-7, FIG. 16); assay type: in vivo; details: Example 5; 5 ng to 100.0 μg per week for 4 weeks; once in 4 weeks for 3 months; all doses tested
[11] = system: adult human retinal pigment epithelial cells, ARPE 19 cells; assay: production of BDNF by ARPE 19 cells exposed to LPS (FIG. 15); assay type: cell-based; details: saline control taken as 100%
Experimental: C=Saline control taken as 100%; LPS=LPS-induced decrease in BDNF production; RSv=Resolvin E1; PRt=Protectin D1; MaR=Maresin; L+R+P+M=LXA4=resolvin D1+Protectin D1+Maresin in 1:1:1:1 ratio.
as §1

[12] = system: neovascularization; details: retina; literature; cited from earlier work
[13] = Example 6, lipids singly and in combination, 5 ng to 100.0 μg per week for 4 weeks, once in 4 weeks for 3 months
[14] = Example 7, with or without anti-VEGF antibody, 5 ng to 25.0 μg once in 4 weeks for 3 months

Row | Molecule | regression of DR, AMD, DME, retinopathy of prematurity [2, 13] | regression of DR, AMD, DME, retinopathy of prematurity [2, 14] | production of BDNF [11] | protection against neovascularization [12] | other results
1 | CCCCC[C@H](O)/C=C/C=C\C=C\C=C\[C@@H](O)[C@@H](O)CCCC(=O)O [LXA4, lipoxin A4] | substantial regression | substantial regression |  |  | production of IL-6 and TNF-α [1]: most effective; reduction in the degree of DR, AMD, DME, and retinopathy of prematurity ([2]; Example 5, direct intravitreal injection, 10.0 μg/day once in a week for 4 weeks, all 40 animals): significant reduction; IL-6 levels ([3]; 10 nmol/L, p=0.036): decreased; stability of LXA4 ([4]; Example 8, 250 ng LXA4 in saline/PBS, albumin between 0.01 to 0.0001% compared to LXA4 concentration): optimum; stability of LXA4 ([4]; Example 8, ratio LXA4/albumin 0.01% to 0.0001%, in the presence of 0.01% ethanol): more stable; stability of LXA4 ([4]; FIG. 17, albumin between 0.01% to 0.001%, LXA4 10 μg in 0.01% ethanol, pH 7.4, 37° C.): stable and active; stability of LXA4 ([4]; FIG. 17, albumin exceeded 0.01%, LXA4 10 μg in 0.01% ethanol, pH 7.4, 37° C.): decreased; stability of LXA4 at different times ([4]; FIG. 18, LXA4 100 ng in saline/PBS/ethanol, ethanol 0.01 to 0.0001% and albumin 0.01 to 0.0001%, incubation in days): best; production of PGE2 and VEGF [5]: most potent; suppression of VEGF-induced angiogenesis [6]: most effective; cytoprotective action against STZ-induced cytotoxic action [7]: most effective; leukocyte migration and adherence [8]: most potent; production of other bioactive lipids such as resolvins, protectins and maresins [9]: enhanced; regression of DR, AMD, DME, retinopathy of prematurity [10]: substantial regression
2 | CC/C=C\C/C=C\C[C@H](O)\C=C/C=C/C=C/[C@H](O)C/C=C\CCC(=O)O [Maresin, maresin 1] | substantial regression | substantial regression | more potent than LXA4 |  | 
3 | CC/C=C\C[C@H](O)\C=C/C=C/C=C/[C@H](O)C/C=C\C/C=C\CCC(=O)O [Neuroprotectin D1, reference compound] |  |  |  | protected against neovascularization | 
4 | CC/C=C\C[C@H](O)\C=C/C=C/C=C/[C@H](O)C/C=C\C/C=C\CCC(=O)O [Protectin D1, protectin D1] | substantial regression | substantial regression | more potent than LXA4 |  | 
5 | CC[C@@H](O)/C=C/C=C\C[C@@H](O)/C=C/C=C/C=C\[C@@H](O)CCCC(=O)O [Resolvin E1, resolvin E1] | substantial regression | substantial regression | more potent than LXA4 | protected against neovascularization | 
6 | CC/C=C\C[C@H](O)/C=C/C=C\C=C\C=C\[C@@H](O)[C@@H](O)C/C=C\CCC(=O)O [resolvin D1] | substantial regression | substantial regression |  | protected against neovascularization | 
7 | B1 |  |  |  |  | IL-6 levels ([3]; 500 pg, p=0.0002): decreased
